Consider one compound from patent US10561635B2, “Cromolyn compositions for treatment of pulmonary fibrosis” (Respivant Sciences, GmbH, priority 2016, dated 2020).

Structures are written as SMILES. Where two headings read alike, the source gives them in different places.

A short description of data set [1]: Pharmacokinetics of cromolyn sodium in plasma and lung of male BALB/c mice after a single intraperitoneal injection. As to conditions: single IP injection, 10 mg/kg and 100 mg/kg. Format: in vivo. As to the method:
BALB/c male mice, weighing 22±2 g, were provided by BioLasco Taiwan. All animals were maintained in a well-controlled temperature (20-24° C.) and humidity (30%-70%) environment with 12 hours light/dark cycles. The mice were given free access to a standard lab diet [MFG (Oriental Yeast Co., Ltd., Japan)] and autoclaved tap water.
The solution was administered to the mice by IP injection at concentrations of 10 mg/kg and 100 mg/kg. The dosing volume for both dose strengths was 5 mL/kg.
The mice were sedated under general inhalant anesthesia (3% isoflurane) for blood collection by cardiac puncture. […]
The plasma samples were processed using acetonitrile (ACN) precipitation and analyzed by LC-MS/MS. […] The processed plasma samples were stored at −70° C. until receiving LC-MS/MS analysis, at which time peak areas were recorded, and the concentrations of the test substance in the unknown plasma samples were determined using the respective calibration curve. The reportable linear range of the assay was determined, along with the lower limit of quantitation (LLQ).
Each lung was homogenized in 1.5 mL cold phosphate-buffered saline (PBS) at pH 7.4 for 10 seconds on ice. The lung homogenate was centrifuged at 5,400×g for 15 minutes at 4° C., and the supernatant was subsequently processed using ACN precipitation and analyzed by LC-MS/MS. […]

Data set [2] can be described thus: PK-01: pharmacokinetics and relative bioavailability of single doses in healthy subjects. The data set is classed as in vivo, human. As to conditions: for AUC(0-inf): human, plasma, inhaled, 40 mg, 40 mg single dose.
Procedure: This was a Phase 1, randomized, open-label, single-centre, dose-ranging, cross-over study conducted in a total of 12 healthy adult subjects of 18-45 years of age.
All study subjects received each study treatment in the morning (at 8:00 am, +/−30 minutes) as a single dose treatment. Prior to each dosing day, subjects were admitted to the clinic in the morning for baseline (pre-dose) assessments. Subjects were required to remain in the clinic for 12 h after study drug administration on each dosing day. Treatment Visits were separated by a washout period of 2 to 5 days.
The duration of the study was one day.
Urine DSCG levels were measured for total DSCG excretion in the urine, and the bioavailability of the DSCG was calculated from the measured levels.
Pharmacokinetic parameters and plasma concentrations are listed and summarized. The summary statistics are presented as the geometric mean, arithmetic mean, arithmetic standard deviation (SD), min, median, max and n. The geometric statistics are not presented for Tmax. Analysis of variance (ANOVA) including terms for subject and treatment are used to calculate point estimates, and confidence intervals (CI) for treatment differences with respect to PK parameters (90% CI) are calculated.
For data set [3] the following is noted: in vivo, cited from earlier work.

As a reminder, the AUC(0-inf) is total exposure, with the tail of the curve extrapolated. Higher therefore signals high exposure. As for `O=C([O-])c1cc(=O)c2c(OCC(O)COc3cccc4oc(C(=O)O)cc(=O)c34)cccc2o1.[Na+]` [cromolyn sodium, disodium 5,5′-(2-hydroxypropane-1,3-diyl)bis(oxy)bis(4-oxo-4H-chromene-2-carboxylate)], the “exposure of cromolyn sodium in the plasma and lungs” value in data set [1] was “Significant exposure”. In addition, the AUC(0-inf) in data set [2] (eFlow 30 L) came out at 338 ng·h/mL; in data set [2] (eFlow 40 L), 212 ng·h/mL. Besides, the “lung deposition with the 30 L device compared with the 40 L device, indicated by AUC” value in data set [2] (same dose (40 mg)) is “surprisingly higher”. For the same compound, the oral bioavailability entry in data set [3] (listed as cromolyn) is reported as “about 1%”; in data set [3], roughly 1%.
